In patent US9206156B2, “Substituted indole derivatives” (GRÜNENTHAL GMBH, priority 2008, dated 2015):

Experiments:
ORL1 receptor = target: T1, ORL1 receptor (Homo sapiens, UniProt P41146); test: ORL1 receptor binding assay with 3H-nociceptin/orphanin FQ (WGA-SPA beads); details: c=1 μM test substance; 0.5 nM 3H-nociceptin/orphanin FQ; membranes of recombinant CHO-ORL1 cells
T1 construct: expressed in transfected cells; host or cells: CHO (recombinant CHO-ORL1 cells), membranes
Protocol: Measurement of ORL1 Binding
The cyclohexane derivatives having the general formula I were investigated in a receptor binding assay with ^3H-nociceptin/orphanin FQ with membranes of recombinant CHO—ORL1 cells. This test system was conducted in accordance with the method described by Ardati et al. (Mol. Pharmacol., 51, 1997, p. 816-824). The concentration of ^3H-nociceptin/orphanin FQ in these tests was 0.5 nM. The binding assays were carried out with 20 μg amounts of membrane protein per 200 μl batch in 50 mM Hepes, pH 7.4, 10 mM MgCl2 and 1 mM EDTA. The binding to the ORL1 receptor was determined using 1 mg amounts of WGA-SPA beads (Amersham-Pharmacia, Freiburg, Germany), by incubation of the batch for one hour at room temperature and subsequent measurement in a Trilux scintillation counter (Wallac, Finland). The affinity is given in Table 1 as the nanomolar Ki value or in % inhibition at c=1 μM.

human μ-opiate receptor = target: T2, human μ-opiate receptor (Homo sapiens, UniProt P35372); test: μ-opiate receptor binding assay with [3H] naloxone (WGA-SPA beads); details: 1 μmol/l test substance; 1 nmol/l [3H] naloxone; CHO-K1 cell membranes expressing human μ-opiate receptor
T2 construct: purchased NEN, Zaventem, Belgium RB-HOM; host or cells: CHO-K1 cells (membrane preparation)
Protocol: The receptor affinity to the human μ-opiate receptor was determined in a homogeneous batch in microtitre plates. To this end, dilution series of the substituted indole derivative to be tested were incubated for 90 minutes at room temperature with a receptor membrane preparation (15-40 μg protein per 250 μl incubation batch) of CHO-K1 cells, which express the human μ-opiate receptor (RB—HOM receptor membrane preparation from NEN, Zaventem, Belgium), in the presence of 1 nmol/l of the radioactive ligand [^3H] naloxone (NET719, NEN, Zaventem, Belgium) and 1 mg of WGA-SPA beads (wheat germ agglutinin SPA beads from Amersham/Pharmacia, Freiburg, Germany) in a total volume of 250 μl. 50 mmol/l tris-HCl supplemented with 0.05 wt. % sodium azide and 0.06 wt. % bovine serum albumin were used as the incubation buffer. In order to determine the non-specific binding, 25 μmol/l of naloxone were also added. At the end of the ninety-minute incubation period the microtitre plates were centrifuged for 20 minutes at 1000 g and the radioactivity was measured in a β counter (Microbeta-Trilux, PerkinElmer Wallac, Freiburg, Germany). The percentage displacement of the radioactive ligand from its binding to the human μ-opiate receptor was determined at a test substance concentration of 1 μmol/l and stated as the percentage inhibition (% inhibition) of the specific binding. In some cases the percentage displacement due to differing concentrations of the compounds having the general formula I to be tested was used to calculate the IC50 inhibition concentrations which bring about a 50-percent displacement of the radioactive ligand. Ki values for the test substances were obtained by extrapolation using the Cheng-Prusoff equation.

T1 sequence (P41146 whole entry): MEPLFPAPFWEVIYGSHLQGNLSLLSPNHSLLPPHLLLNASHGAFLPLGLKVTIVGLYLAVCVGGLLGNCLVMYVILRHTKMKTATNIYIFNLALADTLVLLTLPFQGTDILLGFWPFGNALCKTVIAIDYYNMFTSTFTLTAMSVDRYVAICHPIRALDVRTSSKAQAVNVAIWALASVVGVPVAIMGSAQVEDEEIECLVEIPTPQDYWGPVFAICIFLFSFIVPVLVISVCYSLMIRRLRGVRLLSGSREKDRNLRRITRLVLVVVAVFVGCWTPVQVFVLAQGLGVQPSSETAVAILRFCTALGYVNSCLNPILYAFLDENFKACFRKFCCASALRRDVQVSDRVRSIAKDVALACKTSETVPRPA
T2 sequence (P35372 whole entry): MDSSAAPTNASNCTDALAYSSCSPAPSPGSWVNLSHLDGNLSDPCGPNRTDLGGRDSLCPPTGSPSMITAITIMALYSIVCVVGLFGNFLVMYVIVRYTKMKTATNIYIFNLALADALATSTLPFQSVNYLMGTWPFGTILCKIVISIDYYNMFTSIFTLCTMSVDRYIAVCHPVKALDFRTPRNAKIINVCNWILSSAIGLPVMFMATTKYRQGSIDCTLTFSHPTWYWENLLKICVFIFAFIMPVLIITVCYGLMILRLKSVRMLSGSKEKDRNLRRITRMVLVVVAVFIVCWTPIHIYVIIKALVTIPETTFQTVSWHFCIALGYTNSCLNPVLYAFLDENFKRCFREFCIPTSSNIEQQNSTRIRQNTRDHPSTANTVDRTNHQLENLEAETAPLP

Structure (SMILES): CN(C)C1(c2cccs2)CCN(C(=O)CC(NC(=O)Cc2c[nH]c3cc(F)ccc23)c2ccccc2)CC1 (stereo not shown) [Example 93, N-(3-(4-(dimethylamino)-4-(thiophen-2-yl)piperidin-1-yl)-3-oxo-1-phenylpropyl)-2-(6-fluoro-1H-indol-3-yl)acetamide]
- inhibition at 1 µM (ORL1 receptor): 88%
- inhibition at 1 µM (human μ-opiate receptor): 97%

Structure (SMILES): CCCCC1(N(C)C)CCN(CCN(C)C(=O)c2cc3cc(F)ccc3[nH]2)CC1 [Example 52, N-(2-(4-Butyl-4-(dimethylamino)piperidin-1-yl)ethyl)-5-fluoro-N-methyl-1H-indole-2-carboxamide]
- inhibition at 1 µM (ORL1 receptor): 28%
- inhibition at 1 µM (human μ-opiate receptor): 65%

Structure (SMILES): CN(C)C1(c2ccccc2)CCN(C(=O)C2CCCN(Cc3c[nH]c4ccc(Br)cc34)C2)CC1 (stereo not shown) [Example 155, (1-((5-bromo-1H-indol-3-yl)methyl)piperidin-3-yl)(4-(dimethylamino)-4-phenylpiperidin-1-yl) methanone]
- inhibition at 1 µM (ORL1 receptor): 69%
- inhibition at 1 µM (human μ-opiate receptor): 89%

Structure (SMILES): CN(C)C1(c2ccccc2)CCN(C(=O)C2CCCN(C(=O)Cc3c[nH]c4ccc(Br)cc34)C2)CC1 (stereo not shown) [Example 115, 2-(5-bromo-1H-indol-3-yl)-1-(3-(4-(dimethylamino)-4-phenylpiperidine-1-carbonyl)piperidin-1-yl)ethanone]
- inhibition at 1 µM (ORL1 receptor): 53%
- inhibition at 1 µM (human μ-opiate receptor): 72%

Structure (SMILES): CN(C)C1(c2ccccc2)CCN(C(=O)CCNCc2c[nH]c3ccc(Br)cc23)CC1 [Example 162, 3-((5-bromo-1H-indol-3-yl)methylamino)-1-(4-(dimethylamino)-4-phenylpiperidin-1-yl)propan-1-one]
- inhibition at 1 µM (ORL1 receptor): 63%
- inhibition at 1 µM (human μ-opiate receptor): 80%

Structure (SMILES): CN(CCN1CCC(c2ccccc2)(N(C)C)CC1)Cc1ccc2[nH]ccc2c1 [Example 68, 1-(2-(((1H-Indol-5-yl)methyl)(methyl)amino)ethyl)-N,N-dimethyl-4-phenylpiperidin-4-amine]
- inhibition at 1 µM (ORL1 receptor): 65%
- inhibition at 1 µM (human μ-opiate receptor): 93%

Structure (SMILES): CN(C)C1(c2ccccc2)CCN(C(=O)C2CCCN(Cc3c(-c4ccc(F)cc4)[nH]c4ccccc34)C2)CC1 (stereo not shown) [Example 177, (4-(dimethylamino)-4-phenylpiperidin-1-yl)(1-((2-(4-fluorophenyl)-1H-indol-3-yl)methyl)piperidin-3-yl)methanone]
- inhibition at 1 µM (ORL1 receptor): 51%
- inhibition at 1 µM (human μ-opiate receptor): 94%

Structure (SMILES): CCCCC1(N(C)C)CCN(CCN(C)C(=O)C2CCCc3c2[nH]c2ccc(Cl)cc32)CC1 (stereo not shown) [Example 43, N-(2-(4-Butyl-4-(dimethylamino)piperidin-1-yl)ethyl)-6-chloro-N-methyl-2,3,4,9-tetrahydro-1H-carbazole-1-carboxamide]
- inhibition at 1 µM (ORL1 receptor): 21%
- inhibition at 1 µM (human μ-opiate receptor): 54%

Structure (SMILES): CN(CCN1CCC(c2ccccc2)(N(C)C)CC1)Cc1c(-c2ccc(F)cc2)[nH]c2ccccc12 [Example 70, 1-(2-(((2-(4-Fluorophenyl)-1H-indol-3-yl)methyl)(methyl)amino)ethyl)-N,N-dimethyl-4-phenylpiperidin-4-amine]
- inhibition at 1 µM (ORL1 receptor): 80%
- inhibition at 1 µM (human μ-opiate receptor): 98%

Structure (SMILES): CN(CCCN1CCC(c2cccs2)(N(C)C)CC1)C(=O)Cc1c[nH]c2cc(F)ccc12 [Example 26, N-(3-(4-(Dimethylamino)-4-(thiophen-2-yl)piperidin-1-yl)propyl)-2-(6-fluoro-1H-indol-3-yl)-N-methylacetamide]
- inhibition at 1 µM (ORL1 receptor): 59%
- inhibition at 1 µM (human μ-opiate receptor): 88%

Structure (SMILES): CN(CCCN1CCC(c2ccccc2)(N(C)C)CC1)C(=O)Cc1c[nH]c2cc(F)ccc12 [Example 45, N-(3-(4-(Dimethylamino)-4-phenylpiperidin-1-yl)propyl)-2-(6-fluoro-1H-indol-3-yl)-N-methylacetamide]
- inhibition at 1 µM (ORL1 receptor): 49%
- inhibition at 1 µM (human μ-opiate receptor): 82%

Structure (SMILES): COc1ccc2[nH]cc(CN(C)CCN3CCC(c4ccccc4)(N(C)C)CC3)c2c1 [Example 190, 1-(2-(((5-methoxy-1H-indol-3-yl)methyl)(methyl)amino)ethyl)-N,N-dimethyl-4-phenylpiperidin-4-amine]
- inhibition at 1 µM (ORL1 receptor): 80%
- inhibition at 1 µM (human μ-opiate receptor): 97%

Structure (SMILES): CN(CCN1CCC(c2ccccc2)(N2CCCC2)CC1)C(=O)c1ccc2cc[nH]c2c1 [Example 54, N-Methyl-N-(2-(4-phenyl-4-(pyrrolidin-1-yl)piperidin-1-yl)ethyl)-1H-indole-6-carboxamide]
- inhibition at 1 µM (human μ-opiate receptor): 15%

Structure (SMILES): CCCCC1(N(C)C)CCN(CCN(C)Cc2ccc3[nH]ccc3c2)CC1 [Example 141, 1-(2-(((1H-indol-5-yl)methyl)(methyl)amino)ethyl)-4-butyl-N,N-dimethylpiperidin-4-amine]
- inhibition at 1 µM (human μ-opiate receptor): 82%

Structure (SMILES): CC(C)C(CC(=O)N(C)CCN1CCC(c2ccccc2)(N2CCCC2)CC1)c1c[nH]c2ccccc12 (stereo not shown) [Example 32, 3-(1H-Indol-3-yl)-N,4-dimethyl-N-(2-(4-phenyl-4-(pyrrolidin-1-yl)piperidin-1-yl)ethyl)pentanamide]
- inhibition at 1 µM (human μ-opiate receptor): 61%

Structure (SMILES): CCCCC1(N(C)C)CCN(CCN(C)C(=O)c2c[nH]c3ccccc23)CC1 [Example 47, N-(2-(4-Butyl-4-(dimethylamino)piperidin-1-yl)ethyl)-N-methyl-1H-indole-3-carboxamide]
- inhibition at 1 µM (human μ-opiate receptor): 61%

Structure (SMILES): CN(CCN1CCC(c2ccccc2)(N2CCCC2)CC1)C(=O)c1cccc2c1ccn2C [Example 40, N,1-Dimethyl-N-(2-(4-phenyl-4-(pyrrolidin-1-yl)piperidin-1-yl)ethyl)-1H-indole-4-carboxamide]
- inhibition at 1 µM (human μ-opiate receptor): 40%

Structure (SMILES): CC(CC(=O)N(C)CCN1CCC(c2ccccc2)(N2CCCC2)CC1)c1c[nH]c2ccccc12 (stereo not shown) [Example 57, 3-(1H-Indol-3-yl)-N-methyl-N-(2-(4-phenyl-4-(pyrrolidin-1-yl)piperidin-1-yl)ethyl)butanamide]
- inhibition at 1 µM (human μ-opiate receptor): 45%

Structure (SMILES): COc1ccc2[nH]c(C(=O)N(C)CCN3CCC(c4ccccc4)(N4CCCC4)CC3)cc2c1 [Example 64, 5-Methoxy-N-methyl-N-(2-(4-phenyl-4-(pyrrolidin-1-yl)piperidin-1-yl)ethyl)-1H-indole-2-carboxamide]
- inhibition at 1 µM (human μ-opiate receptor): 18%

Structure (SMILES): CN(CCN1CCC(c2ccccc2)(N2CCCC2)CC1)Cc1c[nH]c2ccccc12 [Example 137, N-((1H-indol-3-yl)methyl)-N-methyl-2-(4-phenyl-4-(pyrrolidin-1-yl)piperidin-1-yl)ethanamine]
- inhibition at 1 µM (human μ-opiate receptor): 82%

Structure (SMILES): CCCCC1(N(C)C)CCN(CCN(C)C(=O)c2cc3cc(OC)ccc3[nH]2)CC1 [Example 65, N-(2-(4-Butyl-4-(dimethylamino)piperidin-1-yl)ethyl)-5-methoxy-N-methyl-1H-indole-2-carboxamide]
- inhibition at 1 µM (human μ-opiate receptor): 42%

Structure (SMILES): CN(CCN1CCC(c2ccccc2)(N2CCCC2)CC1)Cc1cccc2[nH]ccc12 [Example 159, N-((1H-indol-4-yl)methyl)-N-methyl-2-(4-phenyl-4-(pyrrolidin-1-yl)piperidin-1-yl)ethanamine]
- inhibition at 1 µM (human μ-opiate receptor): 64%

Structure (SMILES): CN(CCN1CCC(c2ccccc2)(N2CCCC2)CC1)C(=O)c1c[nH]c2ccccc12 [Example 46, N-Methyl-N-(2-(4-phenyl-4-(pyrrolidin-1-yl)piperidin-1-yl)ethyl)-1H-indole-3-carboxamide]
- inhibition at 1 µM (human μ-opiate receptor): 20%

Structure (SMILES): CCCCC1(N(C)C)CCN(CCN(C)C(=O)c2ccc3ccn(C)c3c2)CC1 [Example 38, N-(2-(4-Butyl-4-(dimethylamino)piperidin-1-yl)ethyl)-N,1-dimethyl-1H-indole-6-carboxamide]
- inhibition at 1 µM (human μ-opiate receptor): 68%

Structure (SMILES): CCCCC1(N(C)C)CCN(CCN(C)Cc2cccc3[nH]ccc23)CC1 [Example 160, 1-(2-(((1H-indol-4-yl)methyl)(methy)amino)ethyl)-4-butyl-N,N-dimethylpiperidin-4-amine]
- % Inhibition (μ) at 1 μM (human μ-opiate receptor): 87%

Structure (SMILES): CN(CCN1CCC(c2ccccc2)(N2CCCC2)CC1)C(=O)CCc1cn(C)c2ccccc12 [Example 48, N-Methyl-3-(1-methyl-1H-indol-3-yl)-N-(2-(4-phenyl-4-(pyrrolidin-1-yl)piperidin-1-yl)ethyl)propanamide]
- inhibition at 1 µM (human μ-opiate receptor): 14%

Structure (SMILES): CCCCC1(N(C)C)CCN(CCN(C)C(=O)c2ccc3cc[nH]c3c2)CC1 [Example 55, N-(2-(4-Butyl-4-(dimethylamino)piperidin-1-yl)ethyl)-N-methyl-1H-indole-6-carboxamide]
- inhibition at 1 µM (human μ-opiate receptor): 66%

Structure (SMILES): CN(CCN1CCC(c2ccccc2)(N2CCCC2)CC1)Cc1c[nH]c2ccc(Br)cc12 [Example 153, N-((5-bromo-1H-indol-3-yl)methyl)-N-methyl-2-(4-phenyl-4-(pyrrolidin-1-yl)piperidin-1-yl)ethanamine]
- inhibition at 1 µM (human μ-opiate receptor): 93%
